Assays:
cats = assay: Bioelectrical activity of the brain (electroencephalogram), cats; format: in vivo
Text: The study of the effect on the bioelectrical activity of the brain was effected in acute experiments using 8 consious cats immobilized with diplacin with a mass of 2.5-3.4 kg under conditions of a controlled breathing and 25 rabbits with a mass of 2.6-3.1 kg with chronically implanted electrodes. Recorded on an electroencephalograph was an electroencephalogram of the sensomotor, parietal and visual regions of the cerebral cortex in cats, plus that of the reticular formation of the midbrain, dorsal hippocamp and amygdala in rabbits.

male rats = assay: Conditional reflex of passive avoidance after amnesia (antiamnestic effect); format: in vivo; details: 1 mg/kg oral
Protocol: Also studied was the effect of the compound according to the present invention on reproduction of the memory traces upon amnesia.
The experiments were carried out using male rats of a mass of 180-220 g.
The antiamnestic effect of the compound according to the present invention was assessed by the method of a conditional reflex of a passive avoidance with a subsequent use, as amnesic factors, of an electric shock (50 mA, 0.3 ms) through ear electrodes or scopolamine (1 mg/kg hypodermally).
The learning of the conditional reflex of a passive avoidance was effected by the "Step-down" method (Izquerdo, 1981) in an experimental unit consisting of a 30x30x40 cm chamber with an electrified floor having in its centre a plastic platform of 10x15x0.5 cm size. A rat was placed onto the platform and a latent period of its escape therefrom was recorded (in seconds). When escaping the platform onto the floor, the rat was subjected to an electric irritation on paws (0.5 mA, 10 seconds) that made it to climb the platform. The learning course took 6 sessions, each of 3 minutes duration. The conditional response was regarded as acquired if an animal remained on the platform for 1 minute.
The amnesic effect was produced immediately after learning course and 30 minutes thereafter the compound according to the present invention was administered in the doses of 1 and 3 mg/kg or (for comparison) pyracetam was administered in the doses of 100, 300, 600 and 1,000 mg/kg. The reproduction of the memory trace was assessed 24 hours after the electric shock and 2.5 hours after administration of scopolamine.

male white mice = assay: Hyperlocomotion induced by d,l-amphetamine; format: in vivo; details: 10-20 minutes after d,l-amphetamine 2.5 mg/kg intraperitoneally, distilled water 1,924.5±177.6
Protocol: The influence on hyperlocomotion induced by d,l-amphetamine was studied in experiments on male white mice with a mass of 20-22 g.
The locomotive activity of the mice was recorded 10-20 minutes after administration of d,l-amphetamine for 10 minutes.

white mice [1] = assay: Enhancement of the effect of 5-hydroxytryptophane (head shaking); format: in vivo
Protocol: The compound according to the present invention was tasted for the exciting effect of 5-hydroxytryptophane (head shaking).
The compound according to the present invention in the doses of 1.0, 2.5, 5.0 and 10 mg/kg was administered orally 60 minutes prior to an intraperitoneal administration of 5-hydroxytryptophane (50 mg/kg).

monoaminoxidase = biological target: T1, monoaminoxidase (Rattus norvegicus, UniProt P21396); assay: Monoaminoxidase activity in brain and liver homogenates after oral dosing; format: in vivo, male white rats
T1 sequence (P21396 1-526): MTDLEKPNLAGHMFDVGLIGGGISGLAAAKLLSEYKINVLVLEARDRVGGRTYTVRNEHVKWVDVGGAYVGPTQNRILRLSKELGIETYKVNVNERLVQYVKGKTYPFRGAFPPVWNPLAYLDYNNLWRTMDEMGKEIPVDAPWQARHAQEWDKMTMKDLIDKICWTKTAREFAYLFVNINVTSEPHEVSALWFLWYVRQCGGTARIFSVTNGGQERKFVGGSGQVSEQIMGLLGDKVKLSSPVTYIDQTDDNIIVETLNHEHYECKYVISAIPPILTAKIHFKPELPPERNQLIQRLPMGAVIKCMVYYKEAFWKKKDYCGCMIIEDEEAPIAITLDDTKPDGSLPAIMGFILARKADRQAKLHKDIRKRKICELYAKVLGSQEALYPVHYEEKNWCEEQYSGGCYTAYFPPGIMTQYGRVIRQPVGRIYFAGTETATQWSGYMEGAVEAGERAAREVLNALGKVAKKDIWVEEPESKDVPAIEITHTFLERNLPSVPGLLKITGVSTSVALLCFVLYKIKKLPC
Protocol: The effect of the compound according to the present invention on the activity of monoaminoxidase was studied in special biochemical investigations.
The experiments were conducted in vivo on male white rats with a mass of 180-200 g. The compound in the doses of 5, 10, 25 and 50 mg/kg was administered orally. An equal volume of a […] of NaCl was administered to control animals. 1.5 hour after administration of the drug the animals were killed. […] The activity of monoaminoxidase was determined in 50% homogenates of the liver and brains of rate prepared on the basis of a 0.1 M phosphate buffer (pH = 7.4) containing 2% of a detergent - Trytol X-100. The substrates were used in concentrations of serotonin 10 µmol, tyramine 6 µmol per sample. The activity of monoaminoxidase was evaluated by liberation of ammonia during incubation of the samples for 50 minutes at the temperature of 37 °C in an oxygen atmosphere.
Protein in homogenates of the rat liver and brain was determined following the Peterson procedure (1977).

white mice [2] = assay: Reserpine-induced blepharoptosis; format: in vivo; details: acute and chronical experiments
Protocol: The compound according to the present invention was tested for the ability to decrease depriming effects of reserpin (blepharoptosis, hypothermia and the like).
Tests were carried out on white mice of both sexes with a mass of 16-18 g.
The compound according to the present invention was orally administered in a single dose and repeatedly during 18 days.
The compound according to the present invention was administered in the single doses of 1, 2.5 and 5 mg/kg; repeatedly - in the doses of 0.5, 1.0, 2.5 and 5 mg/kg. The single-time administration and the last administration of the 18 days' course were effected 60 minutes prior to the intraperitoneal administration of reserpine (2.5 mg/kg). For a comparative assessment in these and other experiments pyrazidol and imipramine were also administered.

mice and rats = assay: Carcinogenic properties, chronic experiment; format: in vivo
[3] = 10 mg/kg oral, 1.5 hour after administration
[4] = 25 mg/kg oral, 1.5 hour after administration (Table 5)
[5] = 25 mg/kg orally, time 1.5 hours (Table 6)
[6] = 25 mg/kg orally, time 6.0 hours
[7] = 25 mg/kg orally, time 48.0 hours
[8] = 50 mg/kg oral, 1.5 hour after administration

2,3,3a,4,5,6-hexahydro-8-cyclohexyl-1H-pyrazino-(3,2,1-j,k)-carbazole hydrochloride [Compound of the present invention]
frequency of the rhythm of oscillations of biopotentials (cats; 2 mg/kg, cats, all recorded regions of the brain cortex, control 8-10 per second): 20-25 per second
amplitudes of oscillations of biopotentials (cats; 2 mg/kg, cats, all recorded regions of the brain cortex, control 90-120 µV): 25-40 µV
changes in the bioelectric activity in the cortex and subcortical brain structures (cats; 0.5 and 1 mg/kg, intravenously and intraperitoneally, cats and rabbits not distinguished): did not bring about any changes
Number of rats, %, remained on the platform for 1 minute, 2.5 hours after administration of scopolamine (1 mg/kg hypodermally) (male rats; amnesia control 10±3.3, distilled water 85±2.0): 22±6.0%
Number of rats, %, remained on the platform for 1 minute, 1 day after electric shock (male rats; electroshock alone 14.2±3.0, distilled water 85±2.0): 25±3.2%
Average value of locomotor activity of a group of 5 mice for 10 minutes (male white mice; 1.0 mg/kg oral): 3,482.6±445.5
Average value of locomotor activity of a group of 5 mice for 10 minutes (male white mice; 2.5 mg/kg oral): 3,315.5±462.6
Average value of locomotor activity of a group of 5 mice for 10 minutes (male white mice; 5.0 mg/kg oral): 4,885.0±537.2
more active than pyrazidol in enhancing the convulsive activity of 5-hydroxytryptophane (white mice [1]; mice, ratio of ED₅₀): about 8 times
ED₅₀, the dose at which head shaking were noticed in 50% of the animals (white mice [1]; orally, 60 minutes prior to 5-hydroxytryptophane 50 mg/kg intraperitoneally, read 25 minutes after): 2.5 (2.1-3.0) mg/kg
Inhibition of deamination, % (M±m), Liver, Serotonin (monoaminoxidase; 5 mg/kg oral, 1.5 hour after administration): 36±9.0%
Inhibition of deamination, % (M±m), Brain, Serotonin (monoaminoxidase; 5 mg/kg oral, 1.5 hour after administration, listed as Compound of the invention, hydrochloride): 60±6.3%
Inhibition of deamination, % (M±m), Brain, Serotonin (monoaminoxidase; 5 mg/kg oral, 1.5 hour after administration, listed as compound according to the present invention, hydrochloride): 60%
Inhibition of deamination, % (M±m), Brain, Serotonin (monoaminoxidase; [3]): 61±7.6%
Inhibition of deamination, % (M±m), Liver, Serotonin (monoaminoxidase; [3]): 27±6.7%
Inhibition of deamination, % (M±m), Brain, Serotonin (monoaminoxidase; [4]): 71±7.6%
Inhibition of deamination, % (M±m), Liver, Serotonin (monoaminoxidase; [4]): 64±6.4%
Inhibition of deamination, % (M±m), Brain, Serotonin (monoaminoxidase; [5]): 71.0±2.0%
Inhibition of deamination, % (M±m), Liver, Serotonin (monoaminoxidase; [5]): 64.0±6.4%
Inhibition of deamination, % (M±m), Brain, Serotonin (monoaminoxidase; [6]): 66.5±3.0%
Inhibition of deamination, % (M±m), Liver, Serotonin (monoaminoxidase; [6]): 53.0±3.0%
Inhibition of deamination, % (M±m), Brain, Serotonin (monoaminoxidase; [7]): 14.0±4.8%
Inhibition of deamination, % (M±m), Liver, Serotonin (monoaminoxidase; [7]): 0%
Inhibition of deamination, % (M±m), Brain, Serotonin (monoaminoxidase; [8]): 93±3.0%
Inhibition of deamination, % (M±m), Liver, Serotonin (monoaminoxidase; [8]): 89±2.7%
anti-reserpine effect, superior to pyrazidol (white mice [2]): more than 10 times
carcinogenic properties (mice and rats): did not reveal carcinogenic properties

Source: patent EP0457908A1, “HYDROCHLORIDE 2,3,3a,4,5,6-HEXAHYDRO-8-CYCLOHEXYL-1H-PYRAZINO (3,2,1-j,k)CARBAZOL, METHOD OF OBTAINING IT AND A PHARMACEUTICAL PREPARATION OF ANTIDEPRESSIVE ACTION BASED ON IT” (priority 1989, dated 1991)
